Reference: the SangsterLogP compilation

Settings: not given

Structure (SMILES) | logP
CC(C)(NC(=O)C(Br)C(C)(C)C)c1ccccc1 (stereo not given) | 3.46
CCCSP(=O)(OCC)Oc1cnn(-c2ccc(Cl)cc2)c1 (stereo not given) | 3.77
FC(F)(F)c1ccc(C(F)(F)F)cc1 | 3.83
CN(C)c1ccc2c(c1)C(=O)N(O)C2=O | 1.27
C1COC1 | -0.14
Oc1ccc(CCNCCCCCCNCCc2ccccc2)cc1O | 1.88
BrC(Br)(Br)Br | 3.42
N#Cc1cccc(C=O)c1 | 1.18
Cc1ccc(/N=C/N(C)/C=N/c2ccc(C)cc2C)c(C)c1 | 5.5
NC(=O)Nc1cccc2cccnc12 | 1.62
COCC(C)OC (stereo not given) | -0.09
O=S(Cc1ccccc1)Cc1ccccc1 | 1.99
Oc1ccc(Sc2ccc(O)cc2)cc1 | 3.34
N#CCc1cccc(Oc2ccccc2)c1 | 3.03
CCOC(=O)C(F)F | 0.87
O=C1C=C(N2CC2)C(=O)C=C1N1CC1 | 0.18
COc1ccc2cc(C(C)C(=O)OCC(=O)N(C)CC(N)=O)ccc2c1 (stereo not given) | 1.37
O=C(Nc1ccccc1)Nc1ccccc1 | 3
c1ccc(-c2csnn2)cc1 | 2.42
OCC=CCO | -0.81
CCn1cnc2c(NC(C)=O)ncnc21 | -0.41
Cc1ccc(N(SC(F)(Cl)Cl)S(=O)(=O)N(C)C)cc1 | 3.95
O=C1CC(Sc2ccncc2)N1 (stereo not given) | 0.61
CC(C(=O)O)c1ccc(N2C(=O)C3CCCCC3C2O)cc1 (stereo not given) | 2.95

Structure (SMILES) | logP
Fc1cccnc1 | 0.77
Nc1ccccc1S(N)(=O)=O | 0.22
CCC(C)N(C(=O)SCc1ccccc1)C(C)CC (stereo not given) | 4.4
CC(C)(C)NCC(O)COCC=Cc1ccccc1 (stereo not given) | 2.69
CC(=S)N(c1ccccc1)c1ccccc1 | 2.83
Oc1ccc(C(F)(F)F)cc1 | 2.82
Cn1c(N)nc2cc(Cl)ccc21 | 2.09
CNc1c(Cl)cccc1Cl | 2.91
O=C1C=C(N2CCCC2)C(=O)C=C1N1CCCC1 | 1.97
COP(=S)(OC)SCC(=O)N(C)C=O | 1.48
Nc1c([N+](=O)[O-])cccc1[N+](=O)[O-] | 1.79
CC(C)(C)n1ccnc1C=NO | 0.85
Cn1cccc1/C=N/NC(=S)Nc1ccccc1 | 3.64
CCOC(=O)CCN(Cc1ccccc1)SN(C)C(=O)ON=C(C)SC | 3.43
Ic1ccc(I)cc1 | 4.11
O=[N+]([O-])c1ccccc1SSc1ccccc1[N+](=O)[O-] | 3.37
CCNC(=O)c1ccco1 | 0.61
CC(C)C(=O)C(C)C | 1.86
C=CCOCC1CO1 (stereo not given) | 0.46
COC(=O)/C=C/C(=O)OC | 0.74
CC(C)(C)c1cccc(C(C)(C)C)n1 | 4.14
COC(=O)CCCCC(=O)OC | 1.03
COc1ccccc1NC(=O)Nc1ccccc1OC | 2.98

Same assay, conditions: pH 6.3

Structure (SMILES) | logD
CC(C)N(C)/N=N/c1ccc(C(N)=O)cc1 | 2.02

Same assay, conditions: pH 7.0

Structure (SMILES) | logD
Cc1cn([C@@H]2O[C@H](CO)[C@@H](O)[C@H]2O)c(=O)nc1N | -2.01
CNc1ncnc2c1ncn2[C@H]1C[C@H](O)[C@@H](CO)O1 | -0.19

Same assay, conditions: pH 7.4

Structure (SMILES) | logD
Cc1ccc(C=Cc2ncc([N+](=O)[O-])n2C)cc1 | 1.64
COC(=O)NCCn1c([N+](=O)[O-])cnc1C | 0.02
CC(=O)Oc1cccc2cccnc12 | 2.03
CN(C)c1nc2c3cccnc3ccc2n1C | 2.28
CC(C)Cn1c(=O)n(C)c(=O)c2[nH]c(CC(O)N3CCN(C(c4ccccc4)c4ccccc4)CC3)nc21 (stereo not given) | 5.21
CCOC(=S)NCCn1c([N+](=O)[O-])cnc1C | 1.5
COC(=O)c1ccc(-c2ncc([N+](=O)[O-])n2C)cc1 | 1.63
Nc1ncc(Cc2ccccc2O)c(N)n1 | 0.82
Cn1c([N+](=O)[O-])cnc1C=NNC(N)=S | 0.65
CSc1ncc([N+](=O)[O-])n1C | 0.94

Same assay, conditions: pH 8.4

Structure (SMILES) | logD
Cn1ccnc1 | -0.06

Same assay, conditions: pH 12.0

Structure (SMILES) | logD
Nc1ccc2cc3ccc(N)cc3nc2c1 | 1.83

Same assay, conditions: pH 13.0

Structure (SMILES) | logD
CCNCCNCC | 0.21
NNc1ccc([N+](=O)[O-])cc1 | 1.41
N#CCN | -1.37
